# Reference: ChEMBL document CHEMBL2203078, “Identification of amides as carboxylic Acid surrogates for quinolizidinone-based m1 positive allosteric modulators” (ACS Med Chem Lett, 2012)
# Activity calls are given as the source filed them. The rule behind the calls is not given here.
# Columns and labels:
# [1] = molecular target: T1, Muscarinic acetylcholine receptor M4 (Homo sapiens) (UniProt P08173); assay: Activity at muscarinic M4 receptor expressing in CHONFAT cells assessed as potentiation of acetylcholine-induced calcium mobilization preincubated for 4 mins and measured 4 mins after acetylcholine stimulation by FLIPR assay; type: functional, cell-based
# T1 sequence (whole entry): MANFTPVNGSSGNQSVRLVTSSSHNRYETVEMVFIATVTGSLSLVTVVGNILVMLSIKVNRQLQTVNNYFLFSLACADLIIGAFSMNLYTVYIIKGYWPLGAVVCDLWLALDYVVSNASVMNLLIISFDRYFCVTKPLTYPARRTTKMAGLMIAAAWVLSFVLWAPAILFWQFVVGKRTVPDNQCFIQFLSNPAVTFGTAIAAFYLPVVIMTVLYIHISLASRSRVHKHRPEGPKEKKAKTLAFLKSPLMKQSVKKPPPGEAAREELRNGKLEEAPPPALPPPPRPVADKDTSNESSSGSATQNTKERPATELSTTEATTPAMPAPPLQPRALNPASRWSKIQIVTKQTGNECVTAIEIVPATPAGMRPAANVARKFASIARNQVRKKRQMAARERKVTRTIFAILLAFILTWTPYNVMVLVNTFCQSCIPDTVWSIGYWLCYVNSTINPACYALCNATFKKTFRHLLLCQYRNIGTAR
# [2] = molecular target: T2, Muscarinic acetylcholine receptor M2 (Homo sapiens) (UniProt P08172); assay: Activity at muscarinic M2 receptor expressing in CHONFAT cells assessed as potentiation of acetylcholine-induced calcium mobilization preincubated for 4 mins and measured 4 mins after acetylcholine stimulation by FLIPR assay; type: functional, cell-based
# T2 sequence (whole entry): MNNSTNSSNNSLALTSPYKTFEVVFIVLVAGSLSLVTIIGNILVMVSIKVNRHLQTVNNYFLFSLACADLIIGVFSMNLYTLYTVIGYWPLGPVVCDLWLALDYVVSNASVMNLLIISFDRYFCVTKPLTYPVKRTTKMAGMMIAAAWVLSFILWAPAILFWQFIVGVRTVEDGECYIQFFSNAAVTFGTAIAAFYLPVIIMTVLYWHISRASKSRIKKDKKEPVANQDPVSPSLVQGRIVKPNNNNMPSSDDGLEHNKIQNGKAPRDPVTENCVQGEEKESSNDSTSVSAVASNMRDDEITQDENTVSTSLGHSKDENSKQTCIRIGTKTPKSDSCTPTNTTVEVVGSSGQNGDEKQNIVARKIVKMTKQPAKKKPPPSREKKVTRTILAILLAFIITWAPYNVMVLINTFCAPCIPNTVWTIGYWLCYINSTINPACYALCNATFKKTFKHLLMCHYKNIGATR
# [3] = molecular target: T3, Muscarinic acetylcholine receptor M1 (Homo sapiens) (UniProt P11229); assay: Positive allosteric modulation of human muscarinic M1 receptor expressing in CHONFAT cells assessed as potentiation of acetylcholine-induced calcium mobilization preincubated for 4 mins and measured 4 mins after acetylcholine stimulation by FLIPR assay; type: functional, cell-based
# T3 sequence (whole entry): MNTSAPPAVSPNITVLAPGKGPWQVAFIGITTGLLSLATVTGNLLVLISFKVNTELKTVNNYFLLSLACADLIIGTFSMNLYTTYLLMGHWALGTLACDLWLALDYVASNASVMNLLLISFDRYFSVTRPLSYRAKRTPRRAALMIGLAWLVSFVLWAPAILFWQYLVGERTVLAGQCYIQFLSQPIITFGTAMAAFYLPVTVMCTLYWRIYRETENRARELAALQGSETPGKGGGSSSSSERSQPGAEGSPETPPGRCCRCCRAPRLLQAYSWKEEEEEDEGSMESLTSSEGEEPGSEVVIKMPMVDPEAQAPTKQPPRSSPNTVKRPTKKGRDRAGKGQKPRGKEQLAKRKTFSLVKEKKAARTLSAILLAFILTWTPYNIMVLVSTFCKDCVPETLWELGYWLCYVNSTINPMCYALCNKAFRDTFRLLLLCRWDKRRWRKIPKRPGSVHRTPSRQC
# [4] = molecular target: Muscarinic acetylcholine receptor M3 (Homo sapiens) (UniProt P20309); assay: Activity at muscarinic M3 receptor expressing in CHONFAT cells assessed as potentiation of acetylcholine-induced calcium mobilization preincubated for 4 mins and measured 4 mins after acetylcholine stimulation by FLIPR assay; type: functional, cell-based
# Chain of Muscarinic acetylcholine receptor M3 (Homo sapiens) (P20309 whole entry, looked up): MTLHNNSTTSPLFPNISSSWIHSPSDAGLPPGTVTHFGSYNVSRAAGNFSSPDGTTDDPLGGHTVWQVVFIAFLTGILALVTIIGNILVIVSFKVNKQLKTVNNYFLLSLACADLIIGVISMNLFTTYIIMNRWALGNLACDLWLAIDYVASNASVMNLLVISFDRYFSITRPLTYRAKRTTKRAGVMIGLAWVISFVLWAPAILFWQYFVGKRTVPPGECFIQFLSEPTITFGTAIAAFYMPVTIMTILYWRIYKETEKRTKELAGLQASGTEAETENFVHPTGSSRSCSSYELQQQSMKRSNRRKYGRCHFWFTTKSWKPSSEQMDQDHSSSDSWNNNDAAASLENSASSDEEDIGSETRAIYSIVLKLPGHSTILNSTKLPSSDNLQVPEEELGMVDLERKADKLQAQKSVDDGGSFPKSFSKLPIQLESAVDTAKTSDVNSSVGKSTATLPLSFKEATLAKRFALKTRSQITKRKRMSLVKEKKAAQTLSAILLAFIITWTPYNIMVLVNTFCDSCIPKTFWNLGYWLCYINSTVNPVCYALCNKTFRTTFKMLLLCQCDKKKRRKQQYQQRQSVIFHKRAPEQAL
# [5] = Passive permeability across MDCK cells; type: ADME, cell-based, Canis lupus familiaris; conditions: dog
# [6] = Protein binding in rat plasma; type: ADME, cell-free; conditions: read-out: PPB (converted)
# [7] = Protein binding in human plasma; type: ADME, cell-free; conditions: read-out: PPB (converted)
# [8] = molecular target: MDR1 (P-gp, ABCB1) (Homo sapiens, UniProt P08183); assay: in vitro; conditions: not told
# Chain of MDR1 (P-gp, ABCB1) (P08183 whole entry): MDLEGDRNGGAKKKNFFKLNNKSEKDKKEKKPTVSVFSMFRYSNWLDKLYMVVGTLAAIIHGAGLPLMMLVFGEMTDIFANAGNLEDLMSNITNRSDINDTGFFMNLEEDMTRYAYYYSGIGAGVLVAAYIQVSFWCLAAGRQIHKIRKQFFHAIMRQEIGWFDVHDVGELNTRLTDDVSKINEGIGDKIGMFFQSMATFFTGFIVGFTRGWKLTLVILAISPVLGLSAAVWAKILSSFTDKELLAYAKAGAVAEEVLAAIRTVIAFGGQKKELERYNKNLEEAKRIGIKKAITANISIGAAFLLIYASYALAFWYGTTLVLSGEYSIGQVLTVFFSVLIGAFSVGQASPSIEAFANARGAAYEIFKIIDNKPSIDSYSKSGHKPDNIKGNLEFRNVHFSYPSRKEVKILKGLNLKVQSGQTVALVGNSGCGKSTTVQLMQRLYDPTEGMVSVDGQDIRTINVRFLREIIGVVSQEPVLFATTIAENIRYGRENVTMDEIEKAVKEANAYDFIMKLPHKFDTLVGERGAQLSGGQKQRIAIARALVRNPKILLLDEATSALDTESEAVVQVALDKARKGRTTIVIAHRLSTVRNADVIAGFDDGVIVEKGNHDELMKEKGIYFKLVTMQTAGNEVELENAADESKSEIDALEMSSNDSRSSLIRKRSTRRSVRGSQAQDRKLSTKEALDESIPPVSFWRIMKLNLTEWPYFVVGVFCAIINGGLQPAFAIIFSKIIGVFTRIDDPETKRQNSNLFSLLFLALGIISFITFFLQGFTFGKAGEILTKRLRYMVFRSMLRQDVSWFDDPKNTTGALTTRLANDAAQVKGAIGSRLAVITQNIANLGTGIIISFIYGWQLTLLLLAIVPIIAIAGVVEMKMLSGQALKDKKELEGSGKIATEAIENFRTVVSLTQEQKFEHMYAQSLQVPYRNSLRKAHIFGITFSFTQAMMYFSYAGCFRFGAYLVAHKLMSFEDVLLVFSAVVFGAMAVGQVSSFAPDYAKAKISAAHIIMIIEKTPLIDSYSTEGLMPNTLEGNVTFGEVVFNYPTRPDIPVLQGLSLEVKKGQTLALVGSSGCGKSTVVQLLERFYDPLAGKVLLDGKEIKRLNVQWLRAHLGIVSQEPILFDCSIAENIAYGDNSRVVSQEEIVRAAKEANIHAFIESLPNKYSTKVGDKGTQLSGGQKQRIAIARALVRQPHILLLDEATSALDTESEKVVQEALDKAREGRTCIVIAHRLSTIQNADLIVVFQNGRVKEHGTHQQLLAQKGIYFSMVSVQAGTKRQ
# Description: Efflux ratio assessed as human MDR1-mediated directional transport ratio from basolateral to apical over apical to basolateral by cell based assay
# [9] = molecular target: MDR1a (P-gp, ABCB1) (Rattus norvegicus, UniProt P43245); assay: in vitro; conditions: not told
# Chain of MDR1a (P-gp, ABCB1) (P43245 whole entry): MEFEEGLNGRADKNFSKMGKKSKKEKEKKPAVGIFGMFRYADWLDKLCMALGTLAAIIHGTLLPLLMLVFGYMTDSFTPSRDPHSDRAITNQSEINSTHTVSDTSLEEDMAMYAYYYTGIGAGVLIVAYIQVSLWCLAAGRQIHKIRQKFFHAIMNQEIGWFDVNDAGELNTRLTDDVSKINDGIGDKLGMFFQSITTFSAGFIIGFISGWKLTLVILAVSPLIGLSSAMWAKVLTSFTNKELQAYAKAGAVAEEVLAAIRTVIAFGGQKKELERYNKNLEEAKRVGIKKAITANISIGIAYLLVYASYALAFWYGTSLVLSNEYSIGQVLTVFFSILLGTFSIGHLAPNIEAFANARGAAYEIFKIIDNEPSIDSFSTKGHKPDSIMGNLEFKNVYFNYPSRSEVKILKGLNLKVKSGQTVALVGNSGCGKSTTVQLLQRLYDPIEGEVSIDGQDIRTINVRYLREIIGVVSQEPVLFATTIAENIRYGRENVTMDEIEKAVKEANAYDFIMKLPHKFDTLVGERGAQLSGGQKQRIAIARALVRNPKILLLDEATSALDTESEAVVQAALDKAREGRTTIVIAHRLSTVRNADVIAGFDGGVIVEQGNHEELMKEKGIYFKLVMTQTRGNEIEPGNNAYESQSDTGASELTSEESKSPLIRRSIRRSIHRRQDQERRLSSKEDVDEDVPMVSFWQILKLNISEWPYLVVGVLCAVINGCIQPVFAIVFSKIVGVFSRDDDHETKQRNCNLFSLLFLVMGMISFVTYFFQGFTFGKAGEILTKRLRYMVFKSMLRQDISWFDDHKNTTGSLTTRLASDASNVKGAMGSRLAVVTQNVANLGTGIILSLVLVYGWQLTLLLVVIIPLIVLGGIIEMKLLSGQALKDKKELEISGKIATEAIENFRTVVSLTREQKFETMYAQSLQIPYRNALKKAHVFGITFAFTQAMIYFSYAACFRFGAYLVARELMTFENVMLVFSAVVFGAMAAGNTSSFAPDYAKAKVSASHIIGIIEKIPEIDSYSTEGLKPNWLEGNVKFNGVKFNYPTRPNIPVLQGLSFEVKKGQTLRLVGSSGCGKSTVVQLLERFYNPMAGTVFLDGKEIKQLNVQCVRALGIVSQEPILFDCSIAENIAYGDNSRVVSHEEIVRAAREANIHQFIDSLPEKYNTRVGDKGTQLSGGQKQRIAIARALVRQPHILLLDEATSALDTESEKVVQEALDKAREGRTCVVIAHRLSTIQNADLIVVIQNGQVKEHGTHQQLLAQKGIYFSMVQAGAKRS
# Description: Efflux ratio assessed as rat MDR1a-mediated directional transport ratio from basolateral to apical over apical to basolateral by cell based assay
# [10] = Drug concentration in Sprague-Dawley rat brain at 10 mg/kg, po after 2 hrs; type: ADME, organism-based; set-up: dose 10 mg/kg, route oral; conditions: read-out: Drug uptake
# [11] = Ratio of drug level in brain to plasma of Sprague-Dawley rat at 10 mg/kg, po after 2 hrs; type: ADME, organism-based; set-up: dose 10 mg/kg, route oral; conditions: read-out: BPR
# [12] = Drug concentration in Sprague-Dawley rat CSF at 10 mg/kg, po after 2 hrs; type: ADME, organism-based, Cerebrospinal fluid; set-up: dose 10 mg/kg, route oral; conditions: read-out: Drug uptake
# [13] = Plasma concentration in Sprague-Dawley rat at 10 mg/kg, po after 2 hrs; type: ADME, organism-based; set-up: dose 10 mg/kg, route oral
Structure (SMILES),Activity [1],Activity [2],IP [3] [nM],Activity [4],Papp [5] [×10⁻⁶ cm/s],fraction unbound [6],fraction unbound [7],efflux ratio [8],efflux ratio [9],concentration at 2 h [10] [nM],Kp at 2 h [11],concentration at 2 h [12] [nM],concentration at 2 h [13] [nM]
CN(C(=O)c1cc(CN2CCC(C#N)(c3ccccn3)CC2)c2ccccn2c1=O)C1CCOCC1,inactive,inactive,4400,inactive,,,,,,,,,
N#CC1(c2ccccn2)CCN(Cc2cc(C(=O)NC3CC3)c(=O)n3ccccc23)CC1,inactive,inactive,2200,inactive,,,,,,,,,
C[C@H]1CCCC[C@@H]1NC(=O)c1cc(CN2CCC(C#N)(c3ccccn3)CC2)c2ccccn2c1=O,inactive,inactive,190,inactive,,,,,,,,,
N#CC1(c2ccccn2)CCN(Cc2cc(C(=O)Nc3ccccn3)c(=O)n3ccccc23)CC1,inactive,inactive,640,inactive,,,,,,,,,
Cc1ccccc1NC(=O)c1cc(CN2CCC(C#N)(c3ccccn3)CC2)c2ccccn2c1=O,inactive,inactive,2400,inactive,,,,,,,,,
N#CC1(c2ccccn2)CCN(Cc2cc(C(=O)NC3CCCOC3)c(=O)n3ccccc23)CC1 (stereo not drawn),inactive,inactive,2600,inactive,,,,,,,,,
Cn1cc(NC(=O)c2cc(CN3CCC(C#N)(c4ccccn4)CC3)c3ccccn3c2=O)nn1,inactive,inactive,1300,inactive,,,,,,,,,
N#CC1(c2ccccn2)CCN(Cc2cc(C(=O)N[C@@H]3CCCC[C@H]3O)c(=O)n3ccccc23)CC1,inactive,inactive,220,inactive,,,,,,,,,
CO[C@H]1CCCC[C@@H]1NC(=O)c1cc(CN2CCC(C#N)(c3ccccn3)CC2)c2ccccn2c1=O,inactive,inactive,381,inactive,,,,,,,,,
C[C@@]1(O)CCCC[C@H]1NC(=O)c1cc(CN2CCC(C#N)(c3ccccn3)CC2)c2ccccn2c1=O,inactive,inactive,93,inactive,,,,,,,,,
N#CC1(c2ccccn2)CCN(Cc2cc(C(=O)N[C@H]3CCCC[C@@H]3O)c(=O)n3ccccc23)CC1,inactive,inactive,31,inactive,29,0.14,0.48,,,,,,
COc1ccc(Cn2cc(C(=O)Nc3ccccc3C)c(=O)c3ccccc32)cc1,inactive,inactive,23000,inactive,,,,,,,,,
N#CC1(c2ccccn2)CCN(Cc2cc(C(=O)NC3CCCCCC3)c(=O)n3ccccc23)CC1,inactive,inactive,304,inactive,,,,,,,,,
Cc1ccc(N2CCN(Cc3cc(C(=O)N[C@H]4CCCC[C@@H]4O)c(=O)n4ccccc34)CC2)nc1,inactive,inactive,174,inactive,23,0.287,0.399,,,,,,
C[C@@]1(NC(=O)c2cc(CN3CCC(C#N)(c4ccccn4)CC3)c3ccccn3c2=O)CCCC[C@H]1O,inactive,inactive,> 20000,inactive,28,,,10,12,,,,
O=C(N[C@H]1CCCC[C@@H]1O)c1cc(CN2CCN(c3cc4scnc4cn3)CC2)c2ccccn2c1=O,inactive,inactive,22,inactive,37,0.051,0.082,,,77,0.19,4,375
N#CC1(c2ccccn2)CCN(Cc2cc(C(N)=O)c(=O)n3ccccc23)CC1,inactive,inactive,1900,inactive,,,,,,,,,
CNC(=O)c1cc(CN2CCC(C#N)(c3ccccn3)CC2)c2ccccn2c1=O,inactive,inactive,4300,inactive,,,,,,,,,
N#CC1(c2ccccn2)CCN(Cc2cc(C(=O)NC3CCCCC3(F)F)c(=O)n3ccccc23)CC1 (stereo not drawn),inactive,inactive,205,inactive,29,0.04,0.105,1.7,3.4,,,,
N#CC1(c2ccccn2)CCN(Cc2cc(C(=O)N3CCCC3)c(=O)n3ccccc23)CC1,inactive,inactive,23000,inactive,,,,,,,,,
Cc1cccc2c1N(C(=O)c1cc(CN3CCC(C#N)(c4ccccn4)CC3)c3ccccn3c1=O)CCC2,inactive,inactive,4400,inactive,,,,,,,,,
COc1ccc(Cn2cc(C(=O)NC3CCCCC3)c(=O)c3ccccc32)cc1,inactive,inactive,14000,inactive,,,,,,,,,
CS[C@H]1CCCC[C@@H]1NC(=O)c1cc(CN2CCC(C#N)(c3ccccn3)CC2)c2ccccn2c1=O,inactive,inactive,177,inactive,,,,,,,,,
N#CC1(c2ccccn2)CCN(Cc2cc(C(=O)NC3CCSCC3)c(=O)n3ccccc23)CC1,inactive,inactive,344,inactive,,,,,,,,,
N#CC1(c2ccccn2)CCN(Cc2cc(C(=O)NC3CCC3)c(=O)n3ccccc23)CC1,inactive,inactive,980,inactive,,,,,,,,,
N#CC1(c2ccccn2)CCN(Cc2cc(C(=O)NC3CCCC3)c(=O)n3ccccc23)CC1,inactive,inactive,780,inactive,,,,,,,,,
N#CC1(c2ccccn2)CCN(Cc2cc(C(=O)NC3CCCCC3)c(=O)n3ccccc23)CC1,inactive,inactive,253,inactive,28,0.044,0.066,1.6,2,,,,
N#CC1(c2ccccn2)CCN(Cc2cc(C(=O)N3CCCc4ccccc43)c(=O)n3ccccc23)CC1,inactive,inactive,7800,inactive,,,,,,,,,
